Experimental data taken from US20210315893A1 (Galapagos NV, priority 2017, published 2021).
pEC50: −log10 of the molar value.

Assays:
[1] = target: T1, human GPCR sphingosine 1-phosphate receptor 2 (Homo sapiens, UniProt O95136); test: S1PR2 antagonist Ca2+ flux assay; format: cell-based; conditions: antagonist mode, CHO-S1PR2 cells, S1P at EC80, Ca2+ fluorescence; read-out: S1P2 EC50 (nM), S1P2 antagonist EC50
T1 construct: host or cells: CHO
Procedure, shortened: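 CHO cells stably expressing human S1PR2, serum-starved 1 h, Fluo8-loaded; compound-evoked Ca2+ fluorescence read 3 min (agonist mode), then after 15 min S1P at EC80 added and read 3 min (antagonist mode). Max/baseline fluorescence ratios normalised to vehicle and S1P EC100 or EC50 controls; EC50 derived.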

[2] = target: T2, human GPCR sphingosine 1-phosphate receptor 1 (Homo sapiens, UniProt P21453); test: S1PR1 selectivity Ca2+ flux assay (antagonist readout); format: cell-based; conditions: antagonist readout, CHO cells overexpressing human S1PR1 and Gq, S1P at EC80 (6 nM); read-out: S1P1 EC50 (nM), S1P1 antagonist EC50
T2 construct: host or cells: CHO
Procedure, shortened: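 CHO cells stably overexpressing human S1PR1, starved 1 h in 0.1% FAF BSA medium, then Fluo 8 dye-loaded. Compound added, then after 15 min at 37 °C, S1P-evoked Ca2+ flux recorded. Maximal signal/background ratio normalized to controls as % inhibition; IC50 from four-parameter logistic fit.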

[3] = target: T3, human GPCR sphingosine 1-phosphate receptor 5 (Homo sapiens, UniProt Q9H228); test: S1PR5 selectivity Ca2+ flux assay (antagonist readout); format: cell-based; conditions: CHO cells overexpressing human S1PR5 and Gq, agonist at EC80 (20 nM), read-out: S1P5 EC50 (nM), S1P5 antagonist EC50
T3 construct: host or cells: CHO
Procedure, shortened: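 CHO cells stably coexpressing human S1PR5 and Gq were serum-starved, Fluo 8-loaded and preincubated 15 min at 37° C with compound. They were then stimulated at EC80 with an S1PR5-specific agonist, and calcium fluorescence was recorded for 3 min. Peak/baseline ratios were normalized to controls and fitted to a four-parameter IC50 equation.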

S1PR2 = target: T4, S1PR2 (Homo sapiens, UniProt O95136); test: S1PR2 binding assay (competition with radioactively labeled S1P, SpA); conditions: membranes from stable cell line over expressing S1PR2, SpA beads; read-out: S1P2 EC50 (nM), S1PR2 binding EC50
T4 construct: expressed in transfected cells
Procedure, shortened: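 Competition with [3H]S1P for membranes from a stable S1PR2-overexpressing cell line, 20 μg/well, captured on PVT-WGA SPA beads, in 20 mM Tris pH 7.5, 10 mM MgCl2, 100 mM NaCl, 0.4% fatty-acid-free BSA, 1 mM Na3VO4. 2 h at room temperature, then centrifugation and scintillation counting.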

HFL-1 cells [4] = test: IL-8 production assay (S1P induced IL-8); format: cell-based; conditions: Homo sapiens, HFL1; S1P (1 μM) induced IL-8 in HFL-1 cells, starvation medium without HSA; read-out: IL8 EC50
Procedure, shortened: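 HFL-1 human fetal lung fibroblasts were starved in F12K/1% FBS, then given compound for 1 h (10-point, 1/3 dilution, 30 μM top, 0.3% DMSO final). S1P was added at 1 μM final for 16–24 h at 37 °C, and secreted IL-8 in supernatant quantified by ELISA.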

HFL-1 cells [5] = test: IL8 assay in the presence of Human Serum Albumin; conditions: HFL1, read-out: HSA IL8 EC50
Method: To evaluate the influence of plasma protein binding of S1P as well as compound, the S1P induced IL-8 levelswereevaluatedin presence of Human Serum Albumin (HSA, equivalent to 40% human serum).
Human Fetal Lung cells (HFL-1) are seeded in 96 well plates in growth medium (F12K+10% heat inactivated FBS+1% Pen/strep). […] On day three, compounds are added (10 point serial dilution, 30 μM highest concentration, 1/3 dilution, 0.3% DMSO final) and plates are incubated for 1 h at 37° C., 5% CO2. Subsequently S1P at 5 μM final concentration is added and plates are incubated for 16 to 24 h at 37° C., 5% COafter which the supernatant was collected. IL-8 levels in the supernatant are determined with the IL-8 ELISA of R&D systems.

T2 sequence (P21453 whole entry): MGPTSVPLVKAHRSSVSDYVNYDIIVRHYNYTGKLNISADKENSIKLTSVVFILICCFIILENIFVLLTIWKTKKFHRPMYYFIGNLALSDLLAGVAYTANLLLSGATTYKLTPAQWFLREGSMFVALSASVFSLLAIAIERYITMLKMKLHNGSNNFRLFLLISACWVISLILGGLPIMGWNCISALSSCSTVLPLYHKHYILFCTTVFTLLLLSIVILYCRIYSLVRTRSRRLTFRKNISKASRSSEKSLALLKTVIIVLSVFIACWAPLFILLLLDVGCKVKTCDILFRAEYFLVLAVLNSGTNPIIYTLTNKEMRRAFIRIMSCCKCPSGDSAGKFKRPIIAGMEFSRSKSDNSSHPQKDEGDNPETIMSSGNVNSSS
T3 sequence (Q9H228 whole entry): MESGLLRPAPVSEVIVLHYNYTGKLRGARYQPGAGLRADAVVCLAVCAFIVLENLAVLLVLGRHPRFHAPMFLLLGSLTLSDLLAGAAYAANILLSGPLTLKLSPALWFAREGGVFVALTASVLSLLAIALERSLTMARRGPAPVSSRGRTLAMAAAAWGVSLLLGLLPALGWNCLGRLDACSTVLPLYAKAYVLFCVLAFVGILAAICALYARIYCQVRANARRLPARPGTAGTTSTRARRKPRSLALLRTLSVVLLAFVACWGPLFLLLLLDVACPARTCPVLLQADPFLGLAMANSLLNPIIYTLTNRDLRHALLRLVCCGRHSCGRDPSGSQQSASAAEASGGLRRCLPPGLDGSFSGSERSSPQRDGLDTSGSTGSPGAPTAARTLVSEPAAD
T1 sequence (O95136 whole entry): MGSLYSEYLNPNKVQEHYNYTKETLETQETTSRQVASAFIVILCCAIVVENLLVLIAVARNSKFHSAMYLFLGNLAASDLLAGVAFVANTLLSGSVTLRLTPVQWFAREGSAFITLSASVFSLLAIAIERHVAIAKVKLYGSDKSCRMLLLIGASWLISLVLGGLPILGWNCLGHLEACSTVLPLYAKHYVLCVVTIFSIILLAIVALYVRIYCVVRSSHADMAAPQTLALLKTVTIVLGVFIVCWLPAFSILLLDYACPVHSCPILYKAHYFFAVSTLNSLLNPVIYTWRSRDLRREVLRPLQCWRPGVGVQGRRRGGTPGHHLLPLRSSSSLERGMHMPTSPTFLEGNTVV
T4 sequence (O95136 whole entry): as above

CC(F)(F)COc1cc2nc(Cc3nn(CC(=O)N4CCOCC4)c(=O)c4ccccc34)[nH]c2cc1C#N [Compound 52, 6-(2,2-difluoropropoxy)-2-[[3-(2-morpholino-2-oxo-ethyl)-4-oxo-phthalazin-1-yl]methyl]-3H-benzimidazole-5-carbonitrile]
EC50 [1]: 11.6 nM
EC50 [2]: ≥ 19800 nM
EC50 [3]: 19800 nM
EC50 (S1PR2): 105 nM
pEC50 (HFL-1 cells [4]): 7.33
pEC50 (HFL-1 cells [5]): 7.30

O=c1c2ccccc2c(Cc2nc3cc(Cl)c(OC(F)(F)F)cc3[nH]2)nn1CC1CCNCC1 [Compound 56, 4-[[6-chloro-5-(trifluoromethoxy)-1H-benzimidazol-2-yl]methyl]-2-(4-piperidylmethyl)phthalazin-1-one]
EC50 [1]: 839 nM
EC50 [2]: ≥ 19800 nM
EC50 [3]: 19800 nM
EC50 (S1PR2): 722 nM
pEC50 (HFL-1 cells [4]): 5.48
pEC50 (HFL-1 cells [5]): 5.53

O=c1c2ccccc2c(Cc2nc3cc(Cl)c(OC(F)(F)F)cc3[nH]2)nn1CC1CCNC1 (stereo not drawn) [Compound 57, 4-[[6-chloro-5-(trifluoromethoxy)-1H-benzimidazol-2-yl]methyl]-2-(pyrrolidin-3-ylmethyl)phthalazin-1-one]
EC50 [1]: 163 nM
EC50 [2]: ≥ 19800 nM
EC50 [3]: 19800 nM
EC50 (S1PR2): 457 nM
pEC50 (HFL-1 cells [4]): 6.26
pEC50 (HFL-1 cells [5]): 6.30

O=c1c2ccccc2c(Cc2nc3cc(Cl)c(OC(F)(F)F)cc3[nH]2)nn1C1CCNC1 (stereo not drawn) [Compound 59, 4-[[6-chloro-5-(trifluoromethoxy)-1H-benzimidazol-2-yl]methyl]-2-pyrrolidin-3-yl-phthalazin-1-one]
EC50 [1]: 94.4 nM
EC50 [2]: ≥ 19800 nM
EC50 [3]: 19800 nM
EC50 (S1PR2): 42 nM
pEC50 (HFL-1 cells [4]): 7.01
pEC50 (HFL-1 cells [5]): 6.74

N#Cc1cc2[nH]c(Cc3nn(C4CCNC4)c(=O)c4ccccc34)nc2cc1OCC(F)F (stereo not drawn) [Compound 64, 6-(2,2-difluoroethoxy)-2-[(4-oxo-3-pyrrolidin-3-yl-phthalazin-1-yl)methyl]-3H-benzimidazole-5-carbonitrile]
EC50 [1]: 137 nM
EC50 [2]: ≥ 19800 nM
EC50 [3]: 19800 nM
EC50 (S1PR2): 131 nM
pEC50 (HFL-1 cells [4]): 7.59
pEC50 (HFL-1 cells [5]): 7.48

COCCOc1cc2nc(Cc3nn(C4CCNC4)c(=O)c4ccccc34)[nH]c2cc1C#N (stereo not drawn) [Compound 65, 6-(2-methoxyethoxy)-2-[(4-oxo-3-pyrrolidin-3-yl-phthalazin-1-yl)methyl]-3H-benzimidazole-5-carbonitrile]
EC50 [1]: 2080 nM
EC50 [2]: ≥ 19800 nM
EC50 [3]: 19800 nM
EC50 (S1PR2): 1030 nM
pEC50 (HFL-1 cells [4]): 6.97
pEC50 (HFL-1 cells [5]): 7.04

COCCOc1cc2nc(Cc3nn(C4CCNC4)c(=O)c4ccccc34)[nH]c2cc1Cl (stereo not drawn) [Compound 67, 4-[[6-chloro-5-(2-methoxyethoxy)-1H-benzimidazol-2-yl]methyl]-2-pyrrolidin-3-yl-phthalazin-1-one]
EC50 [1]: 37.4 nM
EC50 [2]: ≥ 19800 nM
EC50 [3]: 19800 nM
EC50 (S1PR2): 64.9 nM
pEC50 (HFL-1 cells [4]): 8.04
pEC50 (HFL-1 cells [5]): 7.72

N#Cc1cc2[nH]c(Cc3nn(C4CNC4)c(=O)c4ccccc34)nc2cc1OCC(F)F [Compound 68, 2-[[3-(azetidin-3-yl)-4-oxo-phthalazin-1-yl]methyl]-6-(2,2-difluoroethoxy)-3H-benzimidazole-5-carbonitrile]
EC50 [1]: 547 nM
EC50 [2]: ≥ 19800 nM
EC50 [3]: 19800 nM
EC50 (S1PR2): 275 nM
pEC50 (HFL-1 cells [4]): 7.12
pEC50 (HFL-1 cells [5]): 6.91

N#Cc1cc2[nH]c(Cc3nn(C4CN(CC(=O)O)C4)c(=O)c4ccccc34)nc2cc1OCC(F)F [Compound 69, 2-[3-[4-[[6-cyano-5-(2,2-difluoroethoxy)-1H-benzimidazol-2-yl]-methyl]-1-oxo-phthalazin-2-yl]azetidin-1-yl]acetic acid]
EC50 [1]: 238 nM
EC50 [2]: ≥ 19800 nM
EC50 [3]: 19800 nM
EC50 (S1PR2): 272 nM
pEC50 (HFL-1 cells [4]): 6.96
pEC50 (HFL-1 cells [5]): 7.02

N#Cc1cc2[nH]c(Cc3nn(CC4CCCN4CC(=O)O)c(=O)c4ccccc34)nc2cc1OCC(F)F (stereo not drawn) [Compound 70, 2-[2-[[4-[[6-cyano-5-(2,2-difluoroethoxy)-1H-benzimidazol-2-yl]methyl]-1-oxo-phthalazin-2-yl]methyl]pyrrolidin-1-yl]acetic acid]
EC50 [1]: 836 nM
EC50 [2]: ≥ 19800 nM
EC50 [3]: 19800 nM
EC50 (S1PR2): 2100 nM
pEC50 (HFL-1 cells [4]): 6.60
pEC50 (HFL-1 cells [5]): 6.35

N#Cc1cc2[nH]c(Cc3nn(C4CCN(CC(=O)O)C4)c(=O)c4ccccc34)nc2cc1OCC(F)F (stereo not drawn) [Compound 71, 2-[3-[4-[[6-cyano-5-(2,2-difluoroethoxy)-1H-benzimidazol-2-yl]methyl]-1-oxo-phthalazin-2-yl]pyrrolidin-1-yl]acetic acid]
EC50 [1]: 356 nM
EC50 [2]: ≥ 19800 nM
EC50 [3]: 19800 nM
EC50 (S1PR2): 357 nM
pEC50 (HFL-1 cells [4]): 6.81
pEC50 (HFL-1 cells [5]): 6.87

N#Cc1cc2nc(Cc3nn(CC(=O)O)c(=O)c4ccccc34)cn2cc1OCC1CC1 [Compound 79, 2-[4-[[7-cyano-6-(cyclopropylmethoxy)imidazo[1,2-a]pyridin-2-yl]methyl]-1-oxo-phthalazin-2-yl]acetic acid]
EC50 [1]: 82.7 nM
EC50 [2]: ≥ 19800 nM
EC50 [3]: 19800 nM
EC50 (S1PR2): 221 nM
pEC50 (HFL-1 cells [4]): 7.24
pEC50 (HFL-1 cells [5]): 6.30

N#Cc1cc2[nH]c(Cn3cc(C(=O)O)c(=O)c4ccccc43)nc2cc1OCC(F)F [Compound 80, 1-[[6-cyano-5-(2,2-difluoroethoxy)-1H-benzimidazol-2-yl]methyl]-4-oxo-quinoline-3-carboxylic acid]
EC50 [1]: 42.3 nM
EC50 [2]: ≥ 19800 nM
EC50 [3]: 19800 nM
EC50 (S1PR2): 619 nM
pEC50 (HFL-1 cells [4]): 7.33
pEC50 (HFL-1 cells [5]): 6.91

CC(C(=O)O)n1nc(Cc2cn3cc(OCC4CC4)c(C#N)cc3n2)c2ccccc2c1=O (stereo not drawn) [Compound 81, 2-[4-[[7-cyano-6-(cyclopropylmethoxy)imidazo[1,2-a]pyridin-2-yl]methyl]-1-oxo-phthalazin-2-yl]propanoic acid]
EC50 [1]: 22.6 nM
EC50 [2]: ≥ 19800 nM
EC50 [3]: 19800 nM
EC50 (S1PR2): 120 nM
pEC50 (HFL-1 cells [4]): 7.70
pEC50 (HFL-1 cells [5]): 6.82

O=C(O)c1cn(Cc2cn3cc(OCC4CC4)c(Cl)cc3n2)c2ccccc2c1=O [Compound 84, 1-[[7-chloro-6-(cyclopropylmethoxy)imidazo[1,2-a]pyridin-2-yl]methyl]-4-oxo-quinoline-3-carboxylic acid]
EC50 [1]: 41.9 nM
EC50 [2]: ≥ 19800 nM
EC50 [3]: 19800 nM
EC50 (S1PR2): 459 nM
pEC50 (HFL-1 cells [4]): 6.70
pEC50 (HFL-1 cells [5]): 5.61

O=C(O)c1nn(Cc2cn3cc(OCC4CC4)c(Cl)cc3n2)c2ccccc2c1=O [Compound 85, 1-[[7-chloro-6-(cyclopropylmethoxy)imidazo[1,2-a]pyridin-2-yl]methyl]-4-oxo-cinnoline-3-carboxylic acid]
EC50 [1]: 37.4 nM
EC50 [2]: ≥ 19800 nM
EC50 [3]: 19800 nM
EC50 (S1PR2): 619 nM
pEC50 (HFL-1 cells [4]): 7.10
pEC50 (HFL-1 cells [5]): 5.64

O=C(O)CN1CCC(n2nc(Cc3cn4cc(OCC5CC5)c(Cl)cc4n3)c3ccccc3c2=O)C1 (stereo not drawn) [Compound 87, 2-[3-[4-[[7-chloro-6-(cyclopropylmethoxy)imidazo[1,2-a]pyridin-2-yl]methyl]-1-oxo-phthalazin-2-yl]pyrrolidin-1-yl]acetic acid]
EC50 [1]: 149 nM
EC50 [2]: ≥ 19800 nM
EC50 [3]: 19800 nM
EC50 (S1PR2): 178 nM
pEC50 (HFL-1 cells [4]): 6.55
pEC50 (HFL-1 cells [5]): 6.49

O=C(O)c1cn(Cc2nc3cc(OCC4CC4)c(Cl)cc3[nH]2)c2ccccc2c1=O [Compound 90, 1-[[6-chloro-5-(cyclopropylmethoxy)-1H-benzimidazol-2-yl]methyl]-4-oxo-quinoline-3-carboxylic acid]
EC50 [1]: 5.29 nM
EC50 [2]: 4580 nM
EC50 [3]: 6610 nM
EC50 (S1PR2): 13.3 nM
pEC50 (HFL-1 cells [4]): 8.95
pEC50 (HFL-1 cells [5]): 7.54

CC(C(=O)O)n1nc(Cn2cc3cc(OCC4CC4)c(Cl)cc3n2)c2cc(C#N)ccc2c1=O (stereo not drawn) [Compound 92, 2-[4-[[6-chloro-5-(cyclopropylmethoxy)indazol-2-yl]methyl]-6-cyano-1-oxo-phthalazin-2-yl]propanoic acid]
EC50 [1]: 8.99 nM
EC50 [2]: 13200 nM
EC50 [3]: 19800 nM
EC50 (S1PR2): 32.1 nM
pEC50 (HFL-1 cells [4]): 8.36
pEC50 (HFL-1 cells [5]): 6.26
